Results published in patent publication US20240041042A1, “1-(PYRIDYL)-5-AZINYLPYRAZOLE DERIVATIVES, AND THEIR USE FOR CONTROL OF UNDESIRED PLANT GROWTH” (Bayer Aktiengesellschaft, priority 2020, published 2024).
Read-outs that look alike come from different tables or passages of the source.

Columns and labels:
Assay type in all cases: in vivo
Avena fatua (AVEFA) = assay: Post-emergence herbicidal action against AVEFA; conditions: visual rating about 3 weeks after treatment
Summary of the method: (§1)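 Post-emergence greenhouse spray, one-leaf stage, 600 l/ha water plus 0.5% additive; WP or EC formulations; application rates 320 g/ha or lower. Visual % damage vs untreated controls at ~3 weeks.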

Oryza sativa (ORYSA) [1] = conditions: crop plant compatibility
Summary of the method: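 Percent effect on the crop was judged by eye against untreated controls, where 0% means like control and 100% means dead plants. Plants had been sprayed post-emergence at the one-leaf stage and then kept under optimum greenhouse conditions for about 3 weeks.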

[2] = system: Digitaria sanguinalis (DIGSA); assay: Pre-emergence herbicidal action against DIGSA
Summary of the method: (§2)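 Greenhouse pot trial: seeds sown, soil-covered, sprayed before emergence with compound in water (0.5% additive; 600 l/ha; ≤320 g/ha). Scoring visual, ~3 weeks, 0–100% scale vs untreated.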

[3] = system: Digitaria sanguinalis (DIGSA); assay: Post-emergence herbicidal action against DIGSA; conditions: visual rating about 3 weeks after treatment
Summary of the method: as §1

[4] = system: Pharbitis purpurea (PHBPU); assay: Post-emergence herbicidal action against PHBPU
Summary of the method: as §1

[5] = system: Abutilon theophrasti (ABUTH); assay: Pre-emergence herbicidal action against ABUTH; conditions: 100% = plants have died
Summary of the method: as §2

[6] = system: Matricaria inodora (MATIN); assay: Pre-emergence herbicidal action against MATIN
Summary of the method: as §2

Oryza sativa (ORYSA) [7] = conditions: crop plant compatibility; remark: listed apart in the source
Summary of the method: (§3)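 Scoring: visual, % of untreated control, about 3 weeks after a pre-emergence application to the soil surface. Application used WP or EC formulations diluted in water with 0.5% additive at 600 l/ha; dosage levels are marked by suffixes a, b and c.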

Zea mays (ZEAMX) = conditions: pre-emergence, 80 g/ha, crop plant compatibility, in comparison to untreated controls
Summary of the method: as §3

[8] = 80 g/ha, effect in comparison to untreated controls
[9] = 80 g/ha, visual scoring after about 3 weeks vs untreated controls
[10] = Dosage column 320 g/ha (title prints 3200 g/ha), scored visually after about 3 weeks
[11] = 20 g/ha, effect vs untreated controls

Compound	Post-emergence action against AVEFA in % (Avena fatua (AVEFA); 320 g/ha)	Post-emergence action against ORYSA in % (Oryza sativa (ORYSA) [1]; [8])	Pre-emergence action against DIGSA in % [2, 9]	Pre-emergence action against DIGSA in % ([2]; dosage 320 g/ha)	Post-emergence action against DIGSA in % ([3]; 80 g/ha)	Post-emergence action against DIGSA in % ([3]; 320 g/ha)	Post-emergence action against PHBPU in % ([4]; dosage 80 g/ha)	Post-emergence action against PHBPU in % ([4]; dosage 320 g/ha)	Pre-emergence action against ABUTH [5, 10]	Pre-emergence action against MATIN in % ([6]; dosage 80 g/ha)	Pre-emergence action against MATIN in % ([6]; dosage 320 g/ha)	Pre-emergence action against ORYSA (Oryza sativa (ORYSA) [7]; [11])	Post-emergence action against ORYSA in % (Oryza sativa (ORYSA) [1]; [11])	Post-emergence action against AVEFA in % (Avena fatua (AVEFA); 80 g/ha)	Pre-emergence action against ABUTH ([5]; 80 g/ha, scored visually after about 3 weeks vs untreated controls, 0% = like control plants)	Pre-emergence action against ZEAMX in % (Zea mays (ZEAMX))	Pre-emergence action against ORYSA in % (Oryza sativa (ORYSA) [7]; pre-emergence, 80 g/ha, in comparison to untreated controls)
COC(=O)[C@@H](C)COC(=O)COc1nn(-c2ccccn2)c(-c2cncc(F)c2)c1Br [Example I-194]	90%	20%	90%	100%	80%	90%	90%	90%	80%	90%	90%						
O=C(O)COc1nn(-c2ncccc2F)c(-c2ccc(F)nc2)c1Br [Example I-17]	80%	10%	100%	100%	90%	90%		80%	90%	90%	100%	0%	0%				
COC(=O)[C@H](C)COC(=O)COc1nn(-c2ccccn2)c(-c2cncc(F)c2)c1Cl [Example I-192]	80%	0%	90%	100%	80%	80%	90%	90%	80%	90%	90%						
COC(=O)COc1nn(-c2ncccc2F)c(-c2cncc(F)c2)c1C1CC1 [Example I-167]	90%		100%	100%	90%	90%	90%	90%	90%	90%	90%			80%			
O=C(O)COc1nn(-c2ncccc2F)c(-c2cncc(F)c2)c1C1CC1 [Example I-175]	80%	20%	100%	100%	90%	90%	80%	90%	90%	90%	90%			80%	80%		
COC(=O)[C@@H](C)Oc1nn(-c2nc(F)ccc2F)c(-c2cncc(F)c2)c1C1CC1 [Example I-171]	90%		80%	100%		80%	80%	90%	90%	90%	90%			90%			
COCCOC(=O)COc1nn(-c2ncccc2C)c(-c2cncc(F)c2)c1Br [Example I-212]	90%	10%	100%	100%	90%	90%	90%	100%	80%	80%	90%			80%			
CCOC(=O)COc1nn(-c2nc(F)ccc2F)c(-c2cncc(F)c2)c1C1CC1 [Example I-149]	80%		90%	100%	80%	90%	80%	80%	80%	90%	90%						
COCCOC(=O)COc1nn(-c2ccccn2)c(-c2ccc(F)nc2)c1Br [Example I-96]	90%						90%	90%	80%		100%			80%		0%	20%
COC(=O)COc1nn(-c2ncccc2F)c(-c2ccc(F)nc2)c1Br [Example I-07]	90%	0%	100%	100%	90%	90%	80%	80%	90%	80%	100%						
